Reference: patent US11730743B2, “Protection of cells from degeneration and treatment of geographic atrophy” (University of Kentucky Research Foundation, priority 2012, dated 2023)

How the values were obtained:
[1] = test system: IL18; experiment: IL18 mRNA by real-time RT-PCR in human RPE cells; type: cell-based
[2] = test system: NLRP3; experiment: NLRP3 mRNA by real-time RT-PCR in human RPE cells; type: cell-based
From the text: mRNA abundance. Transcript abundance was quantified by real-time RT-PCR using an Applied Biosystems 7900 HT Fast Real-Time PCR system using the 2^−ΔΔct method.
Real-time PCR. Total RNA was extracted from tissues or cells using Trizol reagent (Invitrogen) according to manufacturer's recommendations, DNase treated and reverse transcribed (QuantiTect, Qiagen). The RT products (cDNA) were amplified by real-time quantitative PCR (Applied Biosystems 7900 HT Fast Real-Time PCR system) with Power SYBR green Master Mix. Oligonucleotide primers specific for human IL1B, human NLRP3, human 18S rRNA, mouse Myd88, mouse Nlrp3, mouse 1118, and mouse 18S rRNA were used. The QPCR cycling conditions were 50° C. for 2 min, 95° C. for 10 min followed by 40 cycles of a two-step amplification program (95° C. for 15 s and 58° C. for 1 min). At the end of the amplification, melting curve analysis was applied using the dissociation protocol from the Sequence Detection system to exclude contamination with unspecific PCR products. […] For negative controls, no RT products were used as templates in the QPCR and verified by the absence of gel-detected bands. Relative expressions of target genes were determined by the 2^−ΔΔct method.

[3] = test system: wild-type mice; experiment: Alu RNA- or pAlu-induced RPE degeneration after subretinal injection (fundus photographs, ZO-1 flat mounts); type: in vivo; settings: subretinal pAlu, test agent intravitreous
Protocol: Subretinal injection and imaging. Subretinal injections (1 μL) in mice were performed using a Pico-Injector (PLI-100, Harvard Apparatus). In vivo transfection of plasmids was achieved using 10% Neuroporter (Genlantis). Fundus imaging was performed on a TRC-50 IX camera (Topcon) linked to a digital imaging system (Sony). Immunolabeling of RPE flat mounts was performed using antibodies against human zonula occludens-1 (Invitrogen).
Fundus photography. Retinal photographs of dilated mouse eyes were taken with a TRC-50 IX camera (Topcon) linked to a digital imaging system (Sony).
Immunolabeling. Human eyes fixed in 2-4% paraformaldehyde were prepared as eyecups, cryoprotected in 30% sucrose, embedded in optimal cutting temperature compound (Tissue-Tek OCT; Sakura Finetek), and cryosectioned into 10 μm sections. Depigmentation was achieved using 0.25% potassium permanganate and 0.1% oxalic acid. Immunohistochemical staining was performed with the rabbit antibody against NLRP3 (1:100, Sigma Aldrich) or rabbit antibody against Caspase-1 (prediluted, AbCam). Isotype IgG was substituted for the primary antibody to assess the specificity of the staining. Bound antibody was detected with biotin-conjugated secondary antibodies, followed by incubation with ABC reagent and visualized by Vector Blue (Vector Laboratories). Levamisole (Vector Laboratories) was used to block endogenous alkaline phosphatase activity. Slides were washed in PBS, counterstained with neutral red (Fisher Scientific), rinsed with deionized water, air dried, and then mounted in Vectamount (Vector Laboratories). Fluorescent labeling of human tissue was performed with the rabbit antibody against PYCARD (1:50, Clone N-15, Santa Cruz Biotechnology). Immunolabeling was visualized by fluorescently conjugated anti-rabbit secondary antibody (Invitrogen). Tissue autofluorescence was quenched by incubating the sections in 0.3% Sudan black (Fisher Scientific). Sections were mounted in Vectashield with DAPI (Vector Laboratories). Mouse RPE/choroid flat mounts were fixed with 4% paraformaldehyde or 100% methanol, stained with rabbit antibodies against human zonula occludens-1 (1:100, Invitrogen) and visualized with Alexa594 (Invitrogen). All images were obtained using the Leica SP-5 or Zeiss Axio Observer Z1 microscopes.
Subretinal injection. Subretinal injections (1 μL) in mice were performed using a Pico-Injector (PLI-100, Harvard Apparatus). In vivo transfection of plasmids coding for two different Alu sequences (pAlu) or empty control vector (pNull) (Bennett et al., 2008; Kaneko et al., 2011; Shaikh et al., 1997) was achieved using 10% Neuroporter (Genlantis). AAV1-BEST1-Cre (Alexander and Hauswirth, 2008) or AAV1-BEST1-GFP were injected at […] pfu/mL and in vitro transcribed Alu RNA was injected at 0.3 mg/mL.
Drug treatments. siRNAs formulated in siRNA buffer (20 mM KCL, 0.2 mM MgCl2 in HEPES buffer at pH 7.5; Dharmacon) or phosphate buffered saline (PBS; Sigma-Aldrich); the TLR4 antagonist Ultra Pure Rhodobacter sphaeroides LPS (LPS-RS, InvivoGen), a peptide inhibitor of MyD88 homodimerization IMG-2005 (IMGENEX), control inhibitor (IMGENEX), recombinant IL-18 (Medical & Biological Laboratories), neutralizing rat antibodies against mouse IL-1β (IMGENEX), neutralizing rat antibodies against mouse IL-18 (Medical & Biological Laboratories), isotype control IgGs (R&D Systems or eBioscience as appropriate), Caspase-1 inhibitor Z-WEHD-FMK (R&D Systems), Caspase-3 inhibitor Z-DEVD-FMK (R&D Systems), Caspase control inhibitor Z-FA-FMK (R&D Systems), (2R,4R)-APDC (Enzo Life Sciences), Glipizide (Sigma-Aldrich), Glyburide (Sigma-Aldrich), and P2X7 receptor antagonist A438079 (Tocris Bioscience) were dissolved in phosphate buffered saline (PBS; Sigma-Aldrich) or dimethyl sulfoxide (DMSO; Sigma-Aldrich), and injected into the vitreous humor in a total volume of 1 μL with a 33-gauge Exmire microsyringe (Ito Corporation). […]

N[C@@]1(C(=O)O)CN[C@@H](C(=O)O)C1 [APDC, (2R,4R)-APDC]
blocked: pAlu-induced IL18 mRNA upregulation [1] | pAlu-induced NLRP3 mRNA upregulation [2] | pAlu-induced RPE degeneration [3]
